The record followed here is patent publication US12139487B2, “Compounds and uses thereof” (Foghorn Therapeutics Inc., priority 2022, dated 2024).

The structures appear in SMILES notation.

In one experiment the target is T1, BRG-1 (Homo sapiens, UniProt P51532).
T1 construct: made in house; host or cells: High Five insect cells
Nature of the experiment: ATPase catalytic activity assay (ADP-Glo), BRG-1. It is filed as biochemical. The settings on record: Table 10, read-out: BRG1 IC50. As to the method: (§1) The ATPase catalytic activity of BRM or BRG-1 was measured by an in vitro biochemical assay using ADP-Glo™ (Promega, V9102). The ADP-Glo™ kinase assay is performed in two steps once the reaction is complete. The first step is to deplete any unconsumed ATP in the reaction. The second step is to convert the reaction product ADP to ATP, which will be utilized by the luciferase to generate luminesce and be detected by a luminescence reader, such as Envision.
Then, following addition of 5 μL of ADP-Glo™ Reagent provided in the kit, the reaction incubates at room temperature for 40 minutes. Then, 10 μL of Kinase Detection Reagent provided in the kit is added to convert ADP to ATP, and the reaction incubates at room temperature for 60 minutes. Finally, luminescence measurement is collected with a plate-reading luminometer, such as Envision.
(In general: ADP-Glo first removes unused ATP, then detects ADP through luciferase.)

The target of a further experiment is T2, BRM (Homo sapiens, UniProt P51531).
T2 construct: made in house; host or cells: High Five insect cells
T2 sequence (P51531 whole entry): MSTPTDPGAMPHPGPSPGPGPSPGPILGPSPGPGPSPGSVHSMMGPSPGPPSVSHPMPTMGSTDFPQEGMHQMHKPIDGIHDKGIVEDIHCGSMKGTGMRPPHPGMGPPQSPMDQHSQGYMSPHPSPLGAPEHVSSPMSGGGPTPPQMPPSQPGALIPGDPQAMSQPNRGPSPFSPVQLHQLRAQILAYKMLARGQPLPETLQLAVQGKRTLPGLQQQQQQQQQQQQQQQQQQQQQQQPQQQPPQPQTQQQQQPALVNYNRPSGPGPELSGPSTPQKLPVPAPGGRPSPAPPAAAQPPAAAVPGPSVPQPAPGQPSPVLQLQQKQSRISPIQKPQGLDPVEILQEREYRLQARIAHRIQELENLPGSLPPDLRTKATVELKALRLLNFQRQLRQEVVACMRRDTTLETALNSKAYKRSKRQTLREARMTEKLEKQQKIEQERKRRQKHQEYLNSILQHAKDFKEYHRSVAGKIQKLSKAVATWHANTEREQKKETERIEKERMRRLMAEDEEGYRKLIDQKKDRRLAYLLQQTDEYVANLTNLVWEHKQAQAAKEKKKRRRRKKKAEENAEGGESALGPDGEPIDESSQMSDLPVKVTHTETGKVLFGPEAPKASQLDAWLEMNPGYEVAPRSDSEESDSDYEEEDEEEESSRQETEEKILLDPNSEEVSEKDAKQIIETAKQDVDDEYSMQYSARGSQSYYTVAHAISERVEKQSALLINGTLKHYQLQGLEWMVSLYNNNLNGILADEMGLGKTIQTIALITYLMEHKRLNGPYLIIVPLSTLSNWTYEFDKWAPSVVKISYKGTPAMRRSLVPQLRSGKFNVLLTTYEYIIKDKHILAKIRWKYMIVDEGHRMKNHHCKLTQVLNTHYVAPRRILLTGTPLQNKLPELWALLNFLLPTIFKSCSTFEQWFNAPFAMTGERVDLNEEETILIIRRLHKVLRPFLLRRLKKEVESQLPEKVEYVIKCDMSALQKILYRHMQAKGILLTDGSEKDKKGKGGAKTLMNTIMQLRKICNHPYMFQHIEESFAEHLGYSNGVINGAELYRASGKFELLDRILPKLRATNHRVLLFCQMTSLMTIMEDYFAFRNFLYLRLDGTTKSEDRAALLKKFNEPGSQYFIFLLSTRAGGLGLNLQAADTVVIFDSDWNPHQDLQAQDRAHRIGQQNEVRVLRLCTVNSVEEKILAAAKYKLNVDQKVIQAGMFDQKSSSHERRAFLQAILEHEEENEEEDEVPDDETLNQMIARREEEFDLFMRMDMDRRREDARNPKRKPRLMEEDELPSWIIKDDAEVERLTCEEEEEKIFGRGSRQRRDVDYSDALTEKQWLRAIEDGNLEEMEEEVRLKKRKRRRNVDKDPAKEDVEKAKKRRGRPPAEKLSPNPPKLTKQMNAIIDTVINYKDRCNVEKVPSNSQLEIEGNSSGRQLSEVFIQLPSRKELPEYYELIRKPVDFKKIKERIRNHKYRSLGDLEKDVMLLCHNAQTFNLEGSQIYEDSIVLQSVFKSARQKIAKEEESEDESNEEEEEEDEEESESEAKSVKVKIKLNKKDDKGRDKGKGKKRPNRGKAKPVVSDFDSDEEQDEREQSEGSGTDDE
Nature of the experiment: ATPase catalytic activity assay (ADP-Glo), BRM. It counts as biochemical. The settings on record: Table 10; for Ratio (BRG1 IC50 (μM) divided by BRM IC50 (μM)): ATPase assay, selectivity BRG1/BRM; for IC50: ATPase catalytic activity assay (ADP-Glo). As to the method:
as §1
The assay reaction mixture […] contains 30 nM of BRM or BRG-1, 20 nM salmon sperm DNA (from Invitrogen, UltraPure™ Salmon Sperm DNA Solution, cat #15632011), and 400 μM of ATP in the ATPase assay buffer, which comprises of 20 mM Tris, pH 8, 20 mM MgCl2, 50 mM NaCl, 0.1% Tween-20, and 1 mM fresh DTT (Pierce™ DTT (Dithiothreitol), cat #20290). The reaction is initiated by the addition of the 2.5 μL ATPase solution to 2.5 μL ATP/DNA solution on low volume white Proxiplate-384 plus plate (PerkinElmer, cat #6008280) and incubates at room temperature for 1 hour. Then, following addition of 5 μL of ADP-Glo™ Reagent provided in the kit, the reaction incubates at room temperature for 40 minutes. Then, 10 μL of Kinase Detection Reagent provided in the kit is added to convert ADP to ATP, and the reaction incubates at room temperature for 60 minutes. Finally, luminescence measurement is collected with a plate-reading luminometer, such as Envision.

T1 sequence (P51532 whole entry): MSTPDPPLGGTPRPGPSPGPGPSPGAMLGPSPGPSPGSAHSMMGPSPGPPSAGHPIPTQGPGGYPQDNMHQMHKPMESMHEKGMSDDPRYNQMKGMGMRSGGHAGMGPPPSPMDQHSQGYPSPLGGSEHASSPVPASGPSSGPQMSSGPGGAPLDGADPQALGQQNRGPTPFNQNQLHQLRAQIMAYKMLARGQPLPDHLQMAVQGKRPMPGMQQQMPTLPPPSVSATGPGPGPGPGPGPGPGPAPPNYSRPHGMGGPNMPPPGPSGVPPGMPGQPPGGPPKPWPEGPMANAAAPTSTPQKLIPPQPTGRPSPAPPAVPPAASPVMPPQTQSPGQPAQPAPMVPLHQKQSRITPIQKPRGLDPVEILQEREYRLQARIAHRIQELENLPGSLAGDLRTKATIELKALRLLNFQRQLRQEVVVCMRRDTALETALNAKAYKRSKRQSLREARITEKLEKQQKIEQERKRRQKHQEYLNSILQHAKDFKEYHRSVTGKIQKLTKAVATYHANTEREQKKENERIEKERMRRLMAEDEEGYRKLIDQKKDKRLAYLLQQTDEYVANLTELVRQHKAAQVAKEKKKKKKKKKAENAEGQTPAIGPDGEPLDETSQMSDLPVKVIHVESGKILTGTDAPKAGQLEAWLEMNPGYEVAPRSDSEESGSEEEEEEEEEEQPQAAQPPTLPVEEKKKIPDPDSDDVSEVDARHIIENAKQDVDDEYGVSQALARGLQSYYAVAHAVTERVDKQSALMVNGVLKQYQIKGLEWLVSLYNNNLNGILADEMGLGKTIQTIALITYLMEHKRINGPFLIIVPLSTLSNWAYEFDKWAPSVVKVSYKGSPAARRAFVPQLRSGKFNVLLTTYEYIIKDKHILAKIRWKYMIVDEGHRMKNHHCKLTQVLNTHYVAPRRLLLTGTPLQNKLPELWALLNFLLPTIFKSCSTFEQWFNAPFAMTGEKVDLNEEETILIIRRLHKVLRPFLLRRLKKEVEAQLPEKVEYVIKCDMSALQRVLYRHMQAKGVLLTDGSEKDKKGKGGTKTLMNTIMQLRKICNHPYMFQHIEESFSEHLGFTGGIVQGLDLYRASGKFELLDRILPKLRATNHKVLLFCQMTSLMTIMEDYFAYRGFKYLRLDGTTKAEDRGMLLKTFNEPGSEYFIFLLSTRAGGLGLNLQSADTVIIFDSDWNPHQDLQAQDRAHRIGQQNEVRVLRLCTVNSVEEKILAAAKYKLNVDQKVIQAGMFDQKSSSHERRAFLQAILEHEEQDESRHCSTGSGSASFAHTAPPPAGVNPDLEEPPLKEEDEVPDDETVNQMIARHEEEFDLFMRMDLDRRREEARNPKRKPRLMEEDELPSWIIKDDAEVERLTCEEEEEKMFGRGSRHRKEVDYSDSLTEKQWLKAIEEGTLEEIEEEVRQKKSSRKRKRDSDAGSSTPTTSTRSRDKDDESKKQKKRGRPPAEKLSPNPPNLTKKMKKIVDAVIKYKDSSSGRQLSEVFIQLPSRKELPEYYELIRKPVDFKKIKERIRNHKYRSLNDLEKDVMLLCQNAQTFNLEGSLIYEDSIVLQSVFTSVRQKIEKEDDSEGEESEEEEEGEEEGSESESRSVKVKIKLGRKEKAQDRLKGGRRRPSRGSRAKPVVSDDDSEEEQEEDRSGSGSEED

In the case of `O=C(NCc1cc2nc(N3CCOc4cc(N5C[C@@H](F)[C@H](F)C5)cnc43)ccc2cn1)c1cc(F)c2c(c1)S(=O)(=O)[C@@H](F)CCO2` [Compound 66], the IC50 at BRG-1 stood at 78.5 nM; against BRM, 2.6 nM. Also, the “Ratio (BRG1 IC50 (μM) divided by BRM IC50 (μM))” value at BRM worked out at 24.64.
The like results for `O=C(NCc1cc2nc(N3CCOc4c(N5CCC5)ccnc43)ccc2cn1)c1cc(F)c2c(c1)S(=O)(=O)[C@@H](F)CCO2` [Compound 65] were, in that order, 46.2 nM, 2.6 nM and 21.94.
As to `COc1cnc2c(c1)CCCN2c1ccc2cnc(CNC(=O)c3cc(F)c4c(c3)S(=O)(=O)[C@@H](F)CCO4)cc2n1` [Compound 133], the IC50 at BRG-1 came out at 94.2 nM. Moreover, at BRM, the “Ratio (BRG1 IC50 (μM) divided by BRM IC50 (μM))” value was determined as 18.45 and it took 4.5 nM to reach half-maximal inhibition (IC50).
The like results for `C#Cc1cnc2c(c1)OCCN2c1ccc2cnc(CNC(=O)c3cc(F)c4c(c3)S(=O)(=O)[C@@H](F)CCO4)cc2n1` [Compound 281] were, in that order, 94.3 nM, 10.16 and 9.3 nM.
Consider `C[C@H]1C[C@H]1c1cnc2c(c1)OCCN2c1ccc2cnc(CNC(=O)c3cc(F)c4c(c3)S(=O)(=O)[C@@H](F)CCO4)cc2n1` [Compound 300], for which the IC50 at BRG-1 came out at 118 nM. Besides, on BRM, the “Ratio (BRG1 IC50 (μM) divided by BRM IC50 (μM))” value stood at 11.89 and the IC50 was 9.9 nM.
The like results for `C[C@@H]1CN(c2cccc(-c3ccc4cnc(CNC(=O)c5cc(C(F)F)c6c(c5)S(=O)(=O)[C@@H](F)CCO6)cc4n3)n2)C[C@H](C)O1` [Compound 64] were, in that order, 29.8 nM, 11.59 and 2.6 nM.
The like results for `O=C(NCc1cc2nc(N3CCCc4cc(N5C[C@@H](F)[C@H](F)C5)cnc43)ccc2cn1)c1cc(F)c2c(c1)S(=O)(=O)[C@@H](F)CCO2` [Compound 168] were, in that order, 79.5 nM, 15.00 and 5.3 nM.
`O=C(NCc1cc2cc(-c3cncc(N4CCCC4)n3)ccc2cn1)c1cc(F)c2c(c1)S(=O)(=O)[C@@H](F)CCO2` [Compound 101]: the IC50 on BRG-1 amounted to 83.4 nM. In addition, on BRM, the “Ratio (BRG1 IC50 (μM) divided by BRM IC50 (μM))” value was found to be 23.62 and the IC50 amounted to 3.5 nM.
The corresponding values for `O=C(NCc1cc2nc(N3CCOc4ccc(N5CC[C@@H](F)C5)nc43)ccc2cn1)c1cc(F)c2c(c1)S(=O)(=O)[C@@H](F)CCO2` [Compound 86] are 51.2 nM, 17.70 and 3.2 nM.
The corresponding values for `O=C(NCc1cc2nc(N3CCOc4cc(C56CC(C5)C6)cnc43)ccc2cn1)c1cc(F)c2c(c1)S(=O)(=O)[C@@H](F)COC2` [Compound 146] are 72.9 nM, 15.71 and 4.8 nM.
The like results for `O=C(NCc1cc2cc(-c3ccc(OC(F)F)c(C4CC4)n3)ccc2cn1)c1cc(F)c2c(c1)S(=O)(=O)[C@@H](F)CCO2` [Compound 179] were, in that order, 59.9 nM, 10.62 and 5.6 nM.
With `O=C(NCc1cc2nc(N3CCOc4cc(N5CC[C@@H](F)C5)cnc43)ccc2cn1)c1cc(F)c2c(c1)S(=O)(=O)[C@@H](F)CCO2` [Compound 182], the IC50 at BRG-1 was 83.9 nM. At BRM, the “Ratio (BRG1 IC50 (μM) divided by BRM IC50 (μM))” value is reported as 16.19 and the IC50 is 5.7 nM.
The corresponding values for `Cc1ccc(-c2ccc3cnc(CNC(=O)c4cc(F)c5c(c4)S(=O)(=O)[C@@H](F)CCO5)cc3n2)c(OC(F)F)n1` [Compound 120] are 98.3 nM, 24.03 and 4.1 nM.
The like results for `COc1nc(-c2ccc3cnc(CNC(=O)c4cc(F)c5c(c4)S(=O)(=O)[C@@H](F)CCO5)cc3n2)ccc1[C@H](F)CF` [Compound 227] were, in that order, 70.5 nM, 9.91 and 7.1 nM.
The like results for `C[C@@H]1CN(c2cccc(-c3ccc4cnc(CNC(=O)c5cc(Cl)c6c(c5)S(=O)(=O)[C@@H](F)CCO6)cc4n3)n2)C[C@H](C)O1` [Compound 148, (R)-9-chloro-N-((2-(6-((2S,6R)-2,6-dimethylmorpholino)pyridin-2-yl)-1,6-naphthyridin-7-yl)methyl)-4-fluoro-3,4-dihydro-2H-benzo[b][1,4]oxathiepine-7-carboxamide 5,5-dioxide] were, in that order, 82.6 nM, 17.59 and 4.9 nM.
For `CC#Cc1ccc2c(n1)N(c1ccc3cnc(CNC(=O)c4cc(F)c5c(c4)S(=O)(=O)[C@@H](F)CCO5)cc3n1)CCO2` [Compound 37], on BRG-1, the IC50 came to 31.9 nM. Also, at BRM, the “Ratio (BRG1 IC50 (μM) divided by BRM IC50 (μM))” value was found to be 15.93 and the IC50 came out at 2 nM.
The like results for `O=C(NCc1cc2nc(-c3cccc(OC(F)(F)F)n3)ccc2cn1)c1cc(F)c2c(c1)S(=O)(=O)[C@@H](F)COC2` [Compound 307] were, in that order, 161 nM, 20.42 and 10.4 nM.
The like results for `Cc1cc2c(-c3ccc4cnc(CNC(=O)c5cc(F)c6c(c5)S(=O)(=O)[C@@H](F)CCO6)cc4n3)ccc(F)c2n1C` [Compound 68] were, in that order, 36.2 nM, 13.58 and 2.7 nM.
The corresponding values for `C[C@@H]1CN(c2cccc(-c3ccc4cnc(CNC(=O)c5cc(F)c6c(c5)S(=O)(=O)[C@@H](F)CO6)cc4n3)n2)C[C@H](C)O1` [Compound 326] are 3510 nM, 28.75 and 122 nM.
Take `COCCOc1ccc2c(c1)N(c1ccc3cnc(CNC(=O)c4cc(F)c5c(c4)S(=O)(=O)[C@@H](F)CCO5)cc3n1)CCO2` [Compound 35]: the IC50 on BRG-1 came out at 23.3 nM. Besides, at BRM, the “Ratio (BRG1 IC50 (μM) divided by BRM IC50 (μM))” value was 13.74 and the midpoint of inhibition, the IC50, lay at 1.9 nM.
In the case of `CCOc1cc(C(F)F)nc2c1OCCN2c1ccc2cnc(CNC(=O)c3cc(F)c4c(c3)S(=O)(=O)[C@@H](F)CCO4)cc2n1` [Compound 91], the IC50 on BRG-1 turned out to be 46.7 nM. At BRM, the “Ratio (BRG1 IC50 (μM) divided by BRM IC50 (μM))” value is on record as 14.38 and the IC50 came to 3.2 nM.
The like results for `O=C(NCc1cc2nc(N3CCCc4cc(OC(F)F)cnc43)ccc2cn1)c1cc(F)c2c(c1)S(=O)(=O)[C@@H](F)CCO2` [Compound 229] were, in that order, 72.3 nM, 10.03 and 7.2 nM.
The corresponding values for `COc1nc(C(F)F)ccc1-c1ccc2cnc(CNC(=O)c3ccc4c(c3)S(=O)(=O)[C@@H](F)CO[C@H]4C)cc2n1` [Compound 197] are 84.6 nM, 14.25 and 6 nM.
The like results for `CCOc1ccnc2c1CCCN2c1ccc2cnc(CNC(=O)c3cc(F)c4c(c3)S(=O)(=O)[C@@H](F)CCO4)cc2n1` [Compound 4] were, in that order, 16.9 nM, 12.99 and 1.1 nM.
Turning to `C#Cc1cc(C(=O)NCc2cc3nc(-c4cccc(N5C[C@@H](C)O[C@@H](C)C5)n4)ccc3cn2)cc2c1OCC[C@@H](F)S2(=O)=O` [Compound 315], the IC50 on BRG-1 amounted to 1080 nM; on BRM, 24.9 nM. Besides, the “Ratio (BRG1 IC50 (μM) divided by BRM IC50 (μM))” value at BRM is 43.60.
Turning to `COc1nc([C@@H](C)F)ccc1-c1ccc2cnc(CNC(=O)c3cc(F)c4c(c3)S(=O)(=O)[C@@H](F)CCO4)cc2n1` [Compound 259], at BRG-1, the IC50 was 274 nM. Besides, at BRM, the “Ratio (BRG1 IC50 (μM) divided by BRM IC50 (μM))” value is recorded as 27.15 and the IC50 is 8.3 nM.
The like results for `CN(C)c1ccnc2c1OCCN2c1ccc2cnc(CNC(=O)c3cc(F)c4c(c3)S(=O)(=O)[C@@H](F)CCO4)cc2n1` [Compound 296] were, in that order, 114 nM, 11.58 and 9.9 nM.
The like results for `O=C(NCc1cc2nc(N3CCOc4cc(N5CC(F)C5)cnc43)ccc2cn1)c1cc(F)c2c(c1)S(=O)(=O)[C@@H](F)CCO2` [Compound 139] were, in that order, 147 nM, 24.09 and 4.7 nM.
The like results for `O=C(NCc1cc2nc(N3CCCc4cc(C5COC5)cnc43)ccc2cn1)c1cc(F)c2c(c1)S(=O)(=O)[C@@H](F)CCO2` [Compound 293] were, in that order, 168 nM, 17.20 and 9.8 nM.

As a reminder, the IC50 is the concentration needed to halve the response being measured.
